Experimental data: publication PMC6452907 (Polyhedron, 2019)
Read-outs that look alike come from different tables or passages of the source.

Tests used:
[1] = tested on: L. donovani amastigotes in mouse macrophages; conditions: cited from earlier work
[2] = tested on: L. donovani promastigotes; assay: In vitro antileishmanial assay against L. donovani promastigotes; format: cell-based; conditions: Leishmania donovani, 72 h; for IC50: read-out: L. donavani Promastigotes IC50; for IC90: read-out: L. donavani Promastigotes IC90
[3] = tested on: L. donovani intracellular amastigotes in THP1 cells; format: cell-based, Leishmania donovani
[4] = tested on: L. donovani axenic amastigotes; assay: In vitro antileishmanial assay against L. donovani axenic amastigotes; format: cell-based; conditions: Leishmania donovani, 72 h; for IC50: read-out: L. donavani Amastigotes IC50; for IC90: read-out: L. donavani Amastigotes IC90
[5] = Cytotoxicity against THP1 cell cultures; format: cell-based, human; conditions: human, THP1 cell cultures
[6] = tested on: THP1 cells; assay: Cytotoxicity against THP1 cell cultures; format: cell-based, human; conditions: THP1 cells; for IC50: read-out: THP1 cells (Cytotoxicity) IC50; for IC90: read-out: THP1 cells (Cytotoxicity) IC90
[7] = read-out: L. donavani Amastigotes + THP1 IC50, intracellular amastigotes in differentiated THP1 macrophages
[8] = read-out: L. donavani Amastigotes + THP1 IC90, intracellular amastigotes in differentiated THP1 macrophages

Row | Compound | IC50 [3, 7] [µM] | IC90 [3, 8] [µM] | IC50 [6] [µM] | IC90 [6] [µM] | further results
1 | Cl.Cl.Cl.N=C(N)c1cccc(/C=N/N=C(\N)N/N=C/c2cccc(C(=N)N)c2)c1 [CGP40215A] | – | – | – | – | concentration inhibiting growth of L. donovani amastigotes in mouse macrophages ([1]; mouse macrophages): up to 90 μM
2 | C[C@@H]1[C@H](O)[C@@H](C)/C=C/C=C/C=C/C=C/C=C/C=C/C=C/[C@H](O[C@@H]2O[C@H](C)[C@@H](O)[C@H](N)[C@@H]2O)C[C@@H]2O[C@](O)(C[C@@H](O)C[C@@H](O)[C@H](O)CC[C@@H](O)C[C@@H](O)CC(=O)O[C@H]1C)C[C@H](O)[C@H]2C(=O)O [Amphotericine B] | – | – | – | – | IC50 [2]: 0.134 µM; IC90 [2]: 0.262 µM; IC50 ([3]; Leishmania donovani, THP-1, read-out: L. donavani Amastigotes + THP1 IC50): 0.48 µM; IC90 ([3]; Leishmania donovani, THP-1, read-out: L. donavani Amastigotes + THP1 IC90): 1.94 µM; IC50 [4]: 0.79 µM; IC90 [4]: 0.959 µM; IC50 [5]: > 10 µM; IC90 [5]: > 10 µM
3 | c1ccc(CN2CCCNCCN(Cc3ccccc3)CCCNCC2)cc1 [Bn2Cyclam (L10), 1,8-dibenzylcyclam] | 12.9 | 13.2 | > 25 | > 25 | –
4 | c1ccc(CN2CCN3CCCN(CC2)CCN(Cc2ccccc2)CC3)cc1 [Bn2PBCyclen (L4)] | 18.2 | > 25 | > 25 | > 25 | –
5 | c1ccc(CNCCCNCCCCCCCNCCCNCc2ccccc2)cc1 [MDL27695] | – | – | – | – | elimination of L. donovani amastigotes from mouse macrophages ([1]; at a 1 μM concentration): 77–100%
6 | N=C(N)c1ccc(OCCCCCOc2ccc(C(=N)N)cc2)cc1 [Pentamidine] | – | – | – | – | IC50 [2]: 2.93 µM; IC90 [2]: 6.52 µM; IC50 [4]: 20.4 µM; IC90 [4]: > 25 µM; IC50 [5]: > 20 µM; IC90 [5]: > 25 µM
7 | CN1CCCN2CCN(CCCN(Cc3ccccc3)CC2)CC1 [Bn1Me1Bcyclam (L2)] | > 20 | > 20 | > 20 | > 20 | –
8 | c1ccc(CN2CCN3CCN(CC2)CCN(Cc2ccccc2)CC3)cc1 [Bn2Bcyclen (L3)] | > 25 | > 25 | > 25 | > 25 | –
